The nature of series [1]: HEp-2 CC50 (cytotoxicity in uninfected HEp-2 cells). The series is classed as cell-based. The conditions noted are these: human, CellTiter Glo. How it is done: Instead, an uninfected cell mixture at the same density is added at 20 uL/well to plates containing prediluted compounds, also at 100 nL/sample. Assay plates are then incubated for 4 days followed by a cell viability test using the same CellTiter Glo reagent addition and measurement of luminescent readouts. Untreated cell and cells treated at 2 μM puromycin (Sigma, St. Louis, MO) serve as 100% and 0% cell viability control, respectively.

Series [2] relates to RSV strain A2. The experiment in a line: RSV HEp-2 EC50 (infectious cytopathic cell protection assay). The settings on record: human respiratory syncytial virus, HEp-2, 96 h, read-out: RSV Hep-2 EC50. It is filed as cell-based, RSV strain A2; HEp-2 cells. The protocol: Example 86. RSV HEp-2 EC50
Antiviral activity against RSV is determined using an infectious cytopathic cell protection assay in HEp-2 cells. In this assay, compounds inhibiting viral infection and/or replication produce a cytoprotective effect against the virus-induced cell killing that can be quantified using a cell viability reagent. The techniques used here are novel adaptations of methods described in published literature (Chapman et al., Antimicrob Agents Chemother. 2007, 51(9):3346-53.)
HEp-2 cells are obtained from ATCC (Manassas, VI) and maintained in MEM media supplemented with 10% fetal bovine serum and penicillin/streptomycin. Cells are passaged twice a week and kept at subconfluent stage. Commercial stock of RSV strain A2 (Advanced Biotechnologies, Columbia, MD) is titered before compound testing to determine the appropriate dilution of the virus stock that generates desirable cytopathic effect in HEp-2 cells.
For antiviral tests, HEp-2 cells are grown in large cell culture flasks to near confluency but not fully so. The compounds to be tested are prediluted in DMSO in 384-well compound dilution plates, either in an 8 or 40 sample per plate standardized dose response format. 3-fold serial dilution increments of each test compound are prepared in the plates and test samples are transferred via acoustic transfer apparatus (Echo, Labcyte) at 100 nL per well into cell culture assay 384-well plates. Each compound dilution is transferred in single or quadruplicate samples into dry assay plates, which are stored until assay is ready to go. The positive and negative controls are laid out in opposite on ends of the plate in vertical blocks (1 column).
Subsequently, an infectious mixture is prepared using an appropriate dilution of virus stock previously determined by titration with cells at a density of 50,000/mL and 20 uL/well is added to test plates w/compounds via automation (uFlow, Biotek). Each plate includes negative and positive controls (16 replicates each) to create 0% and 100% virus inhibition standards, respectively. Following the infection with RSV, testing plates are incubated for 4 days in a 37° C. cell culture incubator. After the incubation, a cell viability reagent, Cell TiterGlo (Promega, Madison, WI) is added to the assay plates, which are incubated briefly, and a luminescent readout is measured (Envision, Perkin Elmer) in all the assay plates. The RSV-induced cytopathic effect, percentage inhibition, is determined from the levels of remaining cell viability. […] Various potent anti-RSV tool compounds are used as positive controls for antiviral activity.

In series [3] the test system is Dengue 2, New Guinea strain (NGC). The series can be described thus: DENV-2 moDC EC50 (qPCR of viral RNA in infected moDCs). The series is classed as cell-based, New Guinea strain (NGC); human moDCs. The conditions noted are these: Dengue virus, human moDCs infected with Dengue 2 NGC, MOI=0.1, 48 hours. The protocol: Example 82. DENV-2 moDC EC50
Human monocyte-derived dendritic cells (moDCs) were derived from CD14+ monocytes (AllCells) cultured in Human Mo-DC Differentiation medium containing GM-CSF and IL-4 (Miltenyi Biotec). On day 7, moDCs were harvested by mechanical disruption, washed and suspended in serum-free RPMI. moDCs were infected with Vero-derived Dengue 2, New Guinea strain (NGC) at a MOI=0.1 for two hours in serum-free RPMI with gentle agitation at 37° C. Cells were washed and resuspended in 10% serum-containing RPMI (Gibco, supplemented with sodium pyruvate, NEAA, Penicillin-Streptomycin). […] were plated in triplicate in 96-well plates with compounds dispensed at graded doses (Hewlett-Packard D300 Digital Dispenser). All wells were normalized to 0.25% DMSO. At 48 hours, cells were washed with 1×PBS and all supernatants removed. Total RNA was extracted using RNEasy 96 plates (Qiagen) and used to generate first-strand cDNA using XLT cDNA 5× Supermix (QuantaBio). cDNA was used as a template in a Taqman qPCR duplex reaction specific to DENV2 viral and GAPDH gene expression. EC50 values were determined using Prism Graphpad software, with normalization to a positive control and no compound negative control wells.
A general note: Real-time PCR tracks product formation cycle by cycle.

The nature of series [4]: Huh-7 CC50 (CellTiter Glo viability). The series is classed as cell-based, Human. The settings on record: human, Huh7 hepatocarcinoma cells. How it is done: Human hepatocarcinoma 7 (Huh7) cells were maintained in 10% FCS-containing complete DMEM. On day of assay, cells were trypsinized with 0.1% Trypsin-EDTA, washed and cultured in triplicate at 1-2×10^4 cells/well in 96-well plates with compounds dispensed at graded doses (Hewlett-Packard D300 Digital Dispenser). All wells were normalized to 0.25% DMSO. After 48 hours, CellTiter Glo (Promega) was added and incubated for 10 minutes at room temp before reading on a luminometer. % viability curves were calculated against no compound and no cell control wells. CC50 values were determined using Prism Graphpad software.
Background: Cellular ATP, detected with luciferase, serves as a proxy for viable cell number.

Series [5] in a line: moDC CC50 (CellTiter Glo viability). It is filed as cell-based, Human. The conditions noted are these: human, uninfected moDCs. The protocol:
Human monocyte-derived dendritic cells (moDCs) were derived from CD14+ monocytes (AllCells) cultured in Human Mo-DC Differentiation medium containing GM-CSF and IL-4 (Miltenyi Biotec). On day 7, moDCs were harvested by mechanical disruption, washed and cultured in triplicate at […] cells/well in 96-well plates with compounds dispensed at graded doses (Hewlett-Packard D300 Digital Dispenser). All wells were normalized to 0.25% DMSO. After 48 hours, CellTiter Glo (Promega) was added and incubated for 10 minutes at room temp before reading on a luminometer. % viability curves were calculated against no compound and no cell control wells. CC50 values were determined using Prism Graphpad software.

Series [6] deals with Dengue serotype 2 New Guinea C (NGC) strain. The series can be described thus: DENV-2 Huh-7 EC50 (qPCR of viral RNA in infected Huh7 cells). It is filed as cell-based. The settings on record: Dengue virus, DENV2, Huh-7, Huh7 cells infected with Dengue serotype 2 NGC, MOI=0.1, 48 hours. The protocol: Huh7 (Human hepatocarcinoma 7) cells were maintained in 10% FCS-containing DMEM complete media. On the day of the assay, cells were trypsinized (0.1% Trypsin-EDTA), washed and infected for 2 hours in serum-free DMEM with Dengue serotype 2 New Guinea C (NGC) strain at MOI=0.1 with gentle agitation at 37° C. After 2 hours, cells were washed with serum-free media and suspended in 10% FCS-containing DMEM (Gibco, supplemented with sodium pyruvate, NEAA, Penicillin-Streptomycin). 10^5 cells were plated in triplicate in 96-well plates with compounds dispensed at graded doses (Hewlett-Packard D300 Digital Dispenser). All wells were normalized to 0.25% DMSO. At 48 hours, cells were washed with 1× PBS and all supernatants removed. Total RNA was extracted using RNEasy 96 plates (Qiagen) and used to generate first-strand cDNA using XLT cDNA 5× Supermix (QuantaBio). cDNA was used as a template in a Taqman qPCR duplex reaction specific to DENV2 viral and GAPDH gene expression. EC50 values were determined using Prism Graphpad software, with normalization to a positive control and no compound negative control wells.

Each structure is given as a SMILES string. Bounds are passed on as bounds.

Take `CC(C)OC(=O)[C@H](C)N[P@](=O)(OC[C@@]1(CF)O[C@@H](c2ccc3c(N)ncnn23)[C@H](O)[C@@H]1O)Oc1ccccc1` (single isomer, unassigned) [Example 12]: the half-maximal cytotoxic concentration (CC50) at 4 days in series [1] is > 100 µM. The 50% effective concentration (EC50) in series [2] came out at 1.37 µM; in series [3], 0.753 µM; in series [6], 0.453 µM. Moreover, the cytotoxic concentration (CC50) at 48 h in series [4] and in series [5] was > 25 µM throughout.

Regarding `CCCCCCOC(=O)[C@H](C)N[P@@](=O)(OC[C@@]1(CF)O[C@@H](c2ccc3c(N)ncnn23)[C@H](O)[C@@H]1O)Oc1ccccc1` (single isomer, unassigned) [Example 18], in series [1], the CC50 at 4 days is > 100 µM. The EC50 in series [2] turned out to be 1.3 µM; in series [3], 0.264 µM; in series [6], 0.384 µM. Moreover, the CC50 at 48 h was > 25 µM in series [4] and > 10.5 µM in series [5].

As for `CCCCCCOC(=O)[C@H](C)N[P@](=O)(OC[C@@]1(CF)O[C@@H](c2ccc3c(N)ncnn23)[C@H](O)[C@@H]1O)Oc1ccccc1` (single isomer, unassigned) [Example 19], the CC50 at 4 days in series [1] was > 97.1 µM. The EC50 in series [2] was determined as 0.722 µM; in series [3], 0.212 µM; in series [6], 0.416 µM. Also, the CC50 at 48 h is > 25 µM in series [4] and 10.9 µM in series [5].

On to `CCC(CC)COC(=O)[C@H](C)N[P@](=O)(OC[C@@]1(CF)O[C@@H](c2ccc3c(=N)n(COP(=O)(O)O)cnn23)[C@H](O)[C@@H]1O)Oc1ccccc1` (single isomer, unassigned) [Example 34], for which the concentration giving a half-maximal response (EC50) in series [3] stood at 0.334 µM; in series [6], 0.165 µM. For the same compound, the 50% cytotoxic concentration (CC50) at 48 h in series [4] came to 6.47 µM; in series [5] it was 7.66 µM.

As to `CCCCOC(=O)[C@H](C)N[P@](=O)(OC[C@@]1(CF)O[C@@H](c2ccc3c(N)ncnn23)[C@H](O)[C@@H]1O)Oc1ccccc1` (single isomer, unassigned) [Example 46], in series [1], the midpoint of cytotoxicity, the CC50 at 4 days, lay at 37.1 µM. The EC50 came out at 0.236 µM in series [2], 0.158 µM in series [3] and 0.386 µM in series [6]. Further, the CC50 at 48 h was 10.2 µM in series [4] and 3.35 µM in series [5].

In series [1], `CCOC(=O)[C@H](C)NP(=O)(OC[C@@]1(CF)O[C@@H](c2ccc3c(N)ncnn23)[C@H](O)[C@@H]1O)Oc1cccc2ccccc12` (stereo partly drawn) [Example 44, ethyl ((((2R,3S,4R,5S)-5-(4-aminopyrrolo[2,1-f][1,2,4]triazin-7-yl)-2-(fluoromethyl)-3,4-dihydroxytetrahydrofuran-2-yl)methoxy)(naphthalen-1-yloxy)phosphoryl)-L-alaninate] showed a CC50 at 4 days of 26.5 µM. For the same compound, the EC50 in series [2] is 0.148 µM; in series [6] it was 0.191 µM. In addition, in series [4], it took 17.1 µM to reach half-maximal cytotoxicity (CC50 at 48 h).

As to `C[C@H](NP(=O)(OC[C@@]1(CF)O[C@@H](c2ccc3c(N)ncnn23)[C@H](O)[C@@H]1O)Oc1ccccc1)C(=O)OCC(C)(C)C(F)(F)F` (stereo partly drawn) [Example 53, 3,3,3-trifluoro-2,2-dimethylpropyl ((((2R,3S,4R,5S)-5-(4-aminopyrrolo[2,1-f][1,2,4]triazin-7-yl)-2-(fluoromethyl)-3,4-dihydroxytetrahydrofuran-2-yl)methoxy)(phenoxy)phosphoryl)-L-alaninate], the half-maximal cytotoxic concentration (CC50) at 4 days in series [1] was > 100 µM. Besides, the EC50 in series [2] was found to be 0.565 µM; in series [6], 0.419 µM. Moreover, the half-maximal cytotoxic concentration (CC50) at 48 h in series [4] was found to be 19.7 µM.

Turning to `CCC(CC)COC(=O)[C@H](C)N[P@](=O)(OC[C@@]1(CF)O[C@@H](c2ccc3c(N)ncnn23)[C@H](OC(C)=O)[C@@H]1OC(C)=O)Oc1ccccc1` [Example 60, (2R,3S,4S,5S)-5-(4-aminopyrrolo[2,1-f][1,2,4]triazin-7-yl)-2-((((S)-(((S)-1-(2-ethylbutoxy)-1-oxopropan-2-yl)amino)(Phenoxy)phosphoryl)oxy)methyl)-2-(fluoromethyl)tetrahydrofuran-3,4-diyl diacetate], in series [1], the half-maximal cytotoxic concentration (CC50) at 4 days turned out to be 36.2 µM. In addition, the EC50 stood at 1.1 µM in series [2] and 1.21 µM in series [6]. Moreover, the cytotoxic concentration (CC50) at 48 h in series [4] was > 24.8 µM.

On to `CCOC(=O)[C@@H](NP(=O)(OC[C@@]1(CF)O[C@@H](c2ccc3c(N)ncnn23)[C@H](O)[C@@H]1O)Oc1ccccc1)C(C)C` (stereo partly drawn) [Example 69, ethyl ((((2R,3S,4R,5S)-5-(4-aminopyrrolo[2,1-f][1,2,4]triazin-7-yl)-2-(fluoromethyl)-3,4-dihydroxytetrahydrofuran-2-yl)methoxy)(phenoxy)phosphoryl)-L-valinate], for which, in series [1], the CC50 at 4 days was > 50 µM. Besides, the results for the EC50 in series [2] and in series [6] were > 50 µM and > 25 µM, respectively. The cytotoxic concentration (CC50) at 48 h in series [4] was > 25 µM.

`C[C@H](N[P@](=O)(OC[C@@]1(CF)O[C@@H](c2ccc3c(N)ncnn23)[C@H](O)[C@@H]1O)Oc1ccccc1)C(=O)OC1COC1` [Example 72, oxetan-3-yl ((S)-(((2R,3S,4R,5S)-5-(4-aminopyrrolo[2,1-f][1,2,4]triazin-7-yl)-2-(fluoromethyl)-3,4-dihydroxytetrahydrofuran-2-yl)methoxy)(phenoxy)phosphoryl)-L-alaninate]: the cytotoxic concentration (CC50) at 4 days in series [1] is > 50 µM. Moreover, the EC50 in series [2] was determined as 15.6 µM; in series [6] it was 12.4 µM. For the same compound, the CC50 at 48 h in series [4] is > 25 µM.

What is called CC50 is the concentration giving 50% cytotoxicity. The term EC50 denotes the concentration at which the effect is half-maximal.

These data come from patent US12030903B2, “Antiviral compounds” (Gilead Sciences, Inc., priority 2020, dated 2024).
